In ChEMBL document CHEMBL1141203, “Transforming bivalent ligands into retractable enzyme inhibitors through polypeptide-protein interactions” (Bioorg Med Chem Lett, 2005):
pKi: −log10 of the molar value.

Target: Prothrombin (Homo sapiens, UniProt P00734)
Assay: Inhibitory activity against human thrombin by amidolytic assay using chromogenic S-2238 substrate
Assay type: functional

Row | pKi | SMILES
1 | 7.18 | CC[C@H](C)C[C@H](NC(=O)[C@H](CC(C)C)NC(=O)[C@H](CCCCN)NC(=O)[C@H](CCC(N)=O)NC(=O)[C@H](CCC(=O)O)NC(=O)CNC(=O)[C@H]1CCCCN1C(=O)[C@H](CCCN=C(N)N)NS(=O)(=O)c1ccc(C(C)(C)C)cc1)C(=O)N[C@@H](CO)C(=O)N[C@@H](CCC(=O)O)C(=O)N[C@@H](CCC(=O)O)C(=O)N[C@@H](CC(=O)O)C(=O)N[C@@H](CC(C)C)C(=O)NCC(=O)N[C@@H](CC(=O)O)C(=O)N[C@@H](Cc1ccccc1)C(=O)N[C@@H](CCC(=O)O)C(=O)N[C@@H](CCC(=O)O)C(=O)N[C@H](C(=O)N1CCC[C@H]1C(=O)N[C@@H](CCC(=O)O)C(=O)N[C@@H](CCC(=O)O)C(=O)N[C@@H](Cc1ccc(O)cc1)C(=O)N[C@@H](CC(C)C)C(=O)N[C@@H](CCC(N)=O)C(=O)O)[C@@H](C)CC
2 | 7.44 | CC[C@H](C)[C@H](NC(=O)[C@H](CCC(=O)O)NC(=O)[C@H](CCC(=O)O)NC(=O)[C@H](Cc1ccccc1)NC(=O)[C@H](CC(=O)O)NC(=O)CNC(=O)[C@H](CO)NC(=O)CNC(=O)[C@H](CO)NC(=O)CNC(=O)[C@H]1CCCCN1C(=O)[C@H](CCCN=C(N)N)NS(=O)(=O)c1ccc(C(C)(C)C)cc1)C(=O)N1CCC[C@H]1C(=O)N[C@@H](CCC(=O)O)C(=O)N[C@@H](CCC(=O)O)C(=O)N[C@@H](Cc1ccc(O)cc1)C(=O)N[C@@H](CC(C)C)C(=O)N[C@@H](CCC(N)=O)C(=O)O
